Laboratory results taken from PubChem BioAssay (NCI).
“And” between values parts separate entries of the source, which are not always exact repeats. Equal entries are not always repeated.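 1) Cells in 96-well plates. 2) Compound, 48 h, 5 concentrations. 3) Linear interpolation between surrounding doses. 4) Unreached endpoint = highest concentration. GI50 marks 50% less growth. Definition used: TGI = concentration required for complete inhibition of growth.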

Columns and labels:
Assay in all cases: NCI anticancer screen, dose series, 48 h
[1] = system: HCT-15 colon
[2] = system: HL-60(TB) leukemia
[3] = system: HS 578T breast
[4] = system: M14 melanoma
[5] = system: NCI-H460 lung
[6] = system: OVCAR-3 ovarian
[7] = system: RPMI-8226 leukemia
[8] = system: SK-MEL-28 melanoma
[9] = system: SNB-75 CNS
[10] = system: SW-620 colon

Compound	GI50 [1]	TGI [1]	GI50 [2]	TGI [2]	GI50 [3]	TGI [3]	GI50 [4]	TGI [4]	GI50 [5]	TGI [5]	GI50 [6]	TGI [6]	GI50 [7]	TGI [7]	GI50 [8]	TGI [8]	GI50 [9]	TGI [9]	GI50 [10]	TGI [10]
COCc1c(-c2cc3cc(C)cc(OC)c3s2)c2c(N)ncnn2c1CN1CCNC(=O)C1	3.63 µM	83.7 µM	8.71 µM	32.7 µM	1.84 µM	13.7 µM	4.12 µM	35.4 µM	4.05 µM	> 100 µM	8.08 µM	> 100 µM	1.58 µM	6.83 µM	9.38 µM	70.3 µM	2.13 µM	17.8 µM	3.5 µM	> 100 µM
O=C(Nc1cccc(O)c1)c1ccc(NC2=C(Cl)C(=O)N(Cc3ccc(Cl)cc3Cl)C2=O)cc1	2.51 µM	6.13 µM		3.75 µM	3.24 µM	11.9 µM	8.29 µM	> 55.9 µM	2.86 µM	8.91 µM	1.66 µM	3.45 µM	0.749 µM	2.52 µM	3.41 µM	10.1 µM	2.77 µM	11.2 µM	2.21 µM	6.42 µM
CC1=C2[C@@H](CC1)[C@]1(C)O[C@@](C(C)C)(C[C@H]1OC(=O)CO)[C@H]2OC(=O)C1CC1c1ccccc1 (some centres not stated)	13 µM	27.6 µM	15 µM	38 µM	0.0681 µM	2.38 µM	12.8 µM	29.3 µM	14.5 µM	32.2 µM	13 µM	26.4 µM	12.8 µM	42.6 µM	16.8 µM	34.6 µM	13.7 µM	30.4 µM	16.4 µM	32.6 µM
CN(C)c1ccc2oc(=O)c3ccccc3c2c1		> 100 µM		> 100 µM		92 µM		> 100 µM		> 100 µM		> 100 µM		> 100 µM		> 100 µM		61.8 µM		> 100 µM
CCOCCCn1c2c(c3c(O)cccc31)C(=O)c1ccccc1-2	26.8 µM	65.6 µM	13.2 µM	31.4 µM	32.8 µM	82.3 µM	16.2 µM	31.5 µM	21.6 µM	63.9 µM	21.9 µM	55.3 µM	16.4 µM	43.9 µM	22.5 µM	46.3 µM	20.5 µM	50.3 µM	28.4 µM	> 100 µM
O=S(=O)(O)c1cc(O)c(N=Nc2ccc(O)cc2O)c2ccccc12		> 100 µM		> 100 µM		> 100 µM		> 100 µM				> 100 µM		> 100 µM		> 100 µM		> 100 µM		> 100 µM
CCN(Cc1ccccc1)C1CCN(Cc2cc(Br)ccc2O)CC1	20.1 µM	> 100 µM	31.3 µM	98.8 µM	57.2 µM	> 100 µM	20.7 µM	54.5 µM	58.2 µM	> 100 µM	80.6 µM	> 100 µM	25.5 µM	> 100 µM	22 µM	59.4 µM	27.5 µM	> 100 µM	27.2 µM	> 100 µM
CCOC(=O)Oc1cc2c(c(OC)c1OC)-c1ccc(OC)c(=O)cc1C(NC(C)=O)CC2 (configuration not stated)		> 100 µM		0.0298 µM		> 100 µM		> 70.6 µM		6.67 µM		0.135 µM		70.6 µM		> 100 µM		> 16.9 µM		> 100 µM
CC1CC[P+](c2ccccc2)(c2ccccc2)c2c1ccc1ccccc21 (configuration not stated)		> 100 µM		21.4 µM		7.66 µM		41.9 µM		10.1 µM	3.09 µM	> 58.8 µM	1.63 µM	11.6 µM	13 µM	> 73.4 µM		6.05 µM	5.95 µM	> 100 µM
COc1ccc(C/C(=C(\C)c2ccc(OCCN3CCCC3)cc2)c2ccc(OCCN3CCCC3)cc2)cc1	1.51 µM	3.05 µM	1.67 µM	3.63 µM	2.17 µM	4.83 µM	1.67 µM	3.5 µM	2.08 µM	4.17 µM	2 µM	3.87 µM	1.87 µM	4.3 µM	1.82 µM	3.3 µM	1.59 µM	3.22 µM	1.75 µM	3.65 µM
O=C(/C=C\c1ccc([N+](=O)[O-])cc1)c1ccccc(=O)c1O		4.2 µM		1.63 µM		36.8 µM		6.5 µM		3.64 µM		14.4 µM		4.5 µM		3.75 µM		4.75 µM		> 21.6 µM
COc1cccc(CC(C)=C(c2ccc(OCCN3CCCCC3)cc2)c2ccc(OCCN3CCCCC3)cc2)c1	0.992 µM	2.99 µM	1.78 µM	4.12 µM	1.52 µM	4.02 µM	1.67 µM	3.76 µM	1.96 µM	3.93 µM	1.95 µM	4.04 µM	1.62 µM	4.41 µM	2.12 µM	4.11 µM	1.77 µM	3.83 µM	1.74 µM	3.78 µM
CC(C)(C)C1CCC2c3c([nH]c4ccccc34)C3C(=O)N(c4ccc(Cl)cc4)C(=O)C3C2C1 (configuration not stated)	52.3 µM and > 10 µM	> 100 µM		38.8 µM and > 10 µM	> 100 µM	> 100 µM	54.3 µM and > 10 µM	> 100 µM	37.2 µM and > 10 µM	> 100 µM	30.3 µM and > 10 µM	> 100 µM	27.2 µM and > 10 µM	77 µM and > 10 µM	> 100 µM	> 100 µM	> 100 µM	> 100 µM	53.9 µM and > 10 µM	> 100 µM
COc1ccc(Cc2coc3ccccc3c2=O)cc1OC		> 100 µM		> 100 µM		> 100 µM		> 100 µM		> 100 µM		> 100 µM		> 100 µM		> 100 µM		> 100 µM		> 100 µM
CC(C)(C)c1ccc(Oc2ccc(N)cn2)cc1	43.9 µM	> 100 µM	0.545 µM	17.4 µM	43.9 µM	> 100 µM	56.4 µM	> 100 µM	72.3 µM	> 100 µM	26 µM	> 100 µM	1.99 µM	41.2 µM	75.9 µM	> 100 µM	10.9 µM	> 100 µM	> 100 µM	> 100 µM
CC1C(C)N(C(=O)CCl)c2ccccc2N1C(=O)CCl (configuration not stated)	0.304 µM	1.28 µM	0.211 µM	0.535 µM	1.06 µM	7.63 µM	0.597 µM	2.2 µM	1.74 µM	3.98 µM	0.194 µM	0.428 µM	0.21 µM	0.649 µM	0.838 µM	2.9 µM	1.36 µM	2.84 µM	0.209 µM	0.485 µM
COc1ncc(Nc2ncc([C@@H](C)N3CCN(S(C)(=O)=O)CC3)cc2-c2nc(C)nc(N)n2)cc1F	0.198 µM	> 100 µM	0.0214 µM	> 57.3 µM	0.0244 µM	3.02 µM	2.16 µM	38.8 µM	0.135 µM	> 100 µM	0.0468 µM	11.2 µM	7.13 µM	> 100 µM	0.0534 µM	> 36.6 µM	< 0.01 µM	0.0585 µM	2.82 µM	> 100 µM
Nc1nc([Se])c2ncn(C3OC(CO)C(O)C3O)c2n1 (configuration not stated)	7.84 µM	> 100 µM	4.49 µM	> 100 µM	4.71 µM	> 100 µM	4.28 µM	> 100 µM	4.54 µM	57.1 µM	17.4 µM	68.8 µM			> 100 µM	> 100 µM	> 100 µM	> 100 µM	28.8 µM	> 100 µM
CNC(=O)c1c(NC(=O)c2ccc(C(C)(C)C)cc2)sc2c(CN(C)C)c(O)ccc12	0.459 µM	1.82 µM	1.26 µM	3.18 µM	2.02 µM	4.56 µM	1.74 µM	3.54 µM	1.14 µM	2.53 µM					1.73 µM	3.19 µM			1.74 µM	3.38 µM
C[C@]12CC[C@H]3[C@@H](CC=C4C[C@@H](N5CCCC5)CC[C@@]43C)[C@@H]1C/C(=C\c1cccc(OCCN3CCOCC3)c1)[C@@H]2O	2.39 µM	> 100 µM	4.32 µM	> 100 µM	2.88 µM	18.2 µM	1.96 µM	4.07 µM	3.28 µM	> 100 µM	2.3 µM	7.55 µM			2.01 µM	3.99 µM	14.6 µM	34.3 µM	2.82 µM	18.8 µM
COc1cc(Nc2ncc(-c3ccccc3)o2)cc(OC)c1	18.6 µM	> 25 µM	> 25 µM	> 25 µM	1.39 µM	> 9.65 µM	> 25 µM	> 25 µM	> 20.4 µM	> 25 µM	> 25 µM	> 25 µM	> 25 µM	> 25 µM	> 25 µM	> 25 µM	3.19 µM	> 25 µM	> 25 µM	> 25 µM
Cc1cccc2nc3ccccc3c(Nc3ccc(NS(C)(=O)=O)cc3)c12	5.89 µM	31.6 µM	2.05 µM	5.53 µM	8.88 µM	31.7 µM	9.95 µM	23 µM	2.45 µM	11.7 µM	14.1 µM	37 µM	2.68 µM	9.19 µM	13.8 µM	29.6 µM	13 µM	52.2 µM	4.27 µM	20.3 µM
COC12C=C/C(=C(/C(=O)OCc3ccccn3)C(=O)CCCCCCCCC3(OC)C=C/C(=C(/C(=O)OCc4ccccn4)C(=O)CCCCCCCC1)O3)O2			0.306 µM	2.17 µM	0.783 µM	> 100 µM	0.252 µM	0.571 µM			0.326 µM	1.1 µM	0.371 µM	1.85 µM	0.481 µM	3.62 µM	0.827 µM	2.37 µM	0.385 µM	2.09 µM
Nc1ccc(C(=O)N/C(=C\c2cccc([N+](=O)[O-])c2)c2nc3[nH]c(=S)[nH]c(=O)c3[nH]2)cc1		> 100 µM		> 100 µM		> 91.2 µM		> 100 µM		> 100 µM		> 100 µM		> 100 µM		> 100 µM		32.1 µM		> 100 µM
CCCCCCCCCCCCCC[N+](C)(C)CCCCCCCCCCCCCC	3.33 µM	> 100 µM	2.07 µM	4.89 µM	5.65 µM	24.8 µM					3.58 µM	20.5 µM	1.77 µM	4.44 µM						
Cc1ccccc1NC(=O)c1sc2nc(C)c(C(=O)/C=C/c3ccccc3)cc2c1N	0.836 µM	1.94 µM	0.922 µM	2.72 µM	1.77 µM	> 50 µM	1.58 µM	6.12 µM	1.25 µM	3.22 µM	1 µM	2.12 µM	1.2 µM	3.48 µM	1.26 µM	3.72 µM			1 µM	2.45 µM
NCCCC[C@@H]1NC(=O)[C@H](CC(=O)O)NC(=O)CNC(=O)[C@H](CCCN=C(N)N)NC(=O)[C@@H](N)CSSC[C@@H](C(=O)O)NC(=O)[C@H](CC(=O)O)NC(=O)[C@@H]2CCCN2C(=O)CNC1=O	> 100 µM	> 100 µM	> 100 µM	> 100 µM	> 100 µM	> 100 µM	> 100 µM	> 100 µM	> 100 µM	> 100 µM	> 100 µM	> 100 µM	> 100 µM	> 100 µM	> 100 µM	> 100 µM			> 100 µM	> 100 µM
O=C(CCCN1CCC(O)(c2ccc(Cl)cc2)CC1)c1ccc(F)cc1		37.5 µM				65.9 µM		34.6 µM		45.1 µM		45.2 µM		> 100 µM		36.9 µM		68.9 µM		39.6 µM
